Read-outs that look alike come from different tables or passages of the source.
Columns and labels:
[1] = test system: Jily; experiment: MTS proliferation assay, Jily; format: cell-based; conditions: 72 h incubation, read-out: MTS proliferation assay IC 50 Jily
Experimental: (§1) Cell lines are cultured in RPMI-1640 tissue culture medium containing either 5% or 10% fetal calf serum, 0.05 mM 2-mercaptoethanol, 2 mM glutamine and penicillin/streptomycin 50 μg/ml (complete medium) (Sigma, Buchs, Switzerland). General growth conditions are 37° C. and 7.5% CO2.
(§2) The assay is performed in 96 well tissue culture plates. The cells (range: 1.5*10^3-10^4) are seeded out in 80 μl complete medium 24 h prior to compound treatment. The test compounds are added in 20 μl complete medium containing max 5% DMSO. The final compound concentrations in the assays are 10 μM, 3 μM, 1 μM and 0.3 μM, respectively. The assay plates are incubated for 72 h at culture conditions. The MTS reagent is prepared according to the manufacturer's protocol (Promega G1111). 20 μl MTS reagent are added to each well, the assay plates are quickly spun and incubated for another 3 h at culture conditions. Subsequently, the plates are shortly shaked and absorption measured with a microplate-reader at 492 nm.

[2] = test system: HeLa; experiment: MTS proliferation assay, HeLa; format: cell-based, human; conditions: 72 h incubation, read-out: MTS proliferation assay IC 50 HeLa
Procedure, shortened: (§3)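 Cells seeded 24 h before treatment in RPMI-1640 with 5% or 10% FCS. Compounds added at 10, 3, 1 and 0.3 μM final and incubated 72 h at 37 °C, 7.5% CO2. MTS reagent then added for 3 h, absorbance read at 492 nm.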

[3] = test system: adherent cells or suspension cells; experiment: Hoechst 33342 nuclear staining (fraction of apoptotic nuclei); format: cell-based; set-up: key: 0 relating to no activity; 1 relating to weak activity comprising less than 70% of the cells; score 2 relating to strong activity comprising more than 70% of the cells
[4] = test system: Jurkat; experiment: MTS proliferation assay, Jurkat; format: cell-based, human; conditions: 72 h incubation, read-out: MTS proliferation assay IC 50 Jurkat
Procedure, shortened: as §3

[5] = test system: MRC5; experiment: MTS proliferation assay, MRC5; format: cell-based; conditions: MRC5, 72 h incubation; read-out: MTS proliferation assay IC 50 MRC5
Procedure, shortened: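 Cells seeded 24 h before treatment in RPMI-1640 with 5% or 10% FCS, then exposed 72 h at 37 °C, 7.5% CO2, to compound at final 10, 3, 1 and 0.3 μM. Viability by MTS, 3 h further incubation, absorbance 492 nm.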

[6] = test system: HT1080; experiment: MTS proliferation assay, HT1080; format: cell-based, human; conditions: HT1080, 72 h incubation; read-out: MTS proliferation assay IC 50 HT1080
Experimental: as §1
The following human cell lines (either EGFP transfected or not) are being used: HeLa (ATCC: CCL-2), KB (ATCC: CCL-17), MCF7 (ATCC: HTB-22), SK-BR-3 (ATCC: HTB-30), SK-Mel 1 (ATCC: HTB-67), SK-Mel 28 (ATCC: HTB-72), PC-3 (ATCC: CRL-1435), SW 480 (ATCC: CCL-228), NCl-H460 (ATCC: HTB-177), NCl-H1792 (ATCC: CRL-5895), HT1080 (ATCC: CCL-21), Jurkat (ATCC: TIB-152), Ramos (ATCC: CRL-1596), Raji (ATCC: CCL-86), H9 (ATCC: HTB-176), Hut78 (ATCC: TIB-161), K562 (ATCC: CCL 243), HL-60 (ATCC: CCL 240), U-87MG (ATCC: HTB-14), HepG2 (ATCC: HB-8065), U-2 OS (ATCC: HTB-96), Saos-2 (ATCC: HTB-85), U937 (ATCC: CRL 1593), Hs 578T (ATCC: HTB 126), HBL-100 (ATCC: HTB 124), Molt-4 (ATCC: CRL 1582).
as §2

Structure (SMILES) | IC50 [1] | Hoechst 33342 nuclear staining score ([3]; H460, conc 0.01 μm) | Hoechst 33342 nuclear staining score ([3]; H460, conc 0.1 μm) | Hoechst 33342 nuclear staining score ([3]; H460, conc 1 μm) | Hoechst 33342 nuclear staining score ([3]; HeLa, conc 0.01 μm) | Hoechst 33342 nuclear staining score ([3]; HeLa, conc 0.1 μm) | Hoechst 33342 nuclear staining score ([3]; HeLa, conc 1 μm) | Hoechst 33342 nuclear staining score ([3]; Jily, conc 0.01 μm) | Hoechst 33342 nuclear staining score ([3]; Jily, conc 0.1 μm) | Hoechst 33342 nuclear staining score ([3]; Jily, conc 1 μm) | Hoechst 33342 nuclear staining score ([3]; Jurkat, conc 0.01 μm) | Hoechst 33342 nuclear staining score ([3]; Jurkat, conc 0.1 μm) | Hoechst 33342 nuclear staining score ([3]; Jurkat, conc 1 μm) | Hoechst 33342 nuclear staining score ([3]; MRC5, conc 0.01 μm) | Hoechst 33342 nuclear staining score ([3]; MRC5, conc 0.1 μm) | Hoechst 33342 nuclear staining score ([3]; MRC5, conc 1 μm) | Hoechst 33342 nuclear staining score ([3]; PBLs, conc 0.01 μm) | Hoechst 33342 nuclear staining score ([3]; PBLs, conc 0.1 μm) | Hoechst 33342 nuclear staining score ([3]; PBLs, conc 1 μm) | IC50 [2] | other results
O=C(Cn1c(-c2nonc2NCCCO)nc2ccccc21)c1ccc(Cl)cc1 [Example 11, 4-[1-(4-Chlorophenacyl)-1H-benzimidazol-2-yl]-furazan-3-yl-N-(3-hydroxypropyl)-amine] | 10 to 100 nM | 0 | 0 | 2 (score 2 relating to strong activity comprising more than 70% of the cells) | 0 | 1 (1 relating to weak activity comprising less than 70% of the cells) | 2 (score 2 relating to strong activity comprising more than 70% of the cells) | 0 | 2 (score 2 relating to strong activity comprising more than 70% of the cells) | 2 (score 2 relating to strong activity comprising more than 70% of the cells) | 0 | 2 (score 2 relating to strong activity comprising more than 70% of the cells) | 2 (score 2 relating to strong activity comprising more than 70% of the cells) | 0 | 1 (1 relating to weak activity comprising less than 70% of the cells) | 2 (score 2 relating to strong activity comprising more than 70% of the cells) | 0 | 0 | 0 |  | IC50 ([2]; Homo sapiens): 100 to 1000 nM
Cc1ccc(C(=O)Cn2c(-c3nonc3N)nc3ccccc32)cc1C [Example 53] | 10 to 100 nM | 0 | 2 (score 2 relating to strong activity comprising more than 70% of the cells) | 2 (score 2 relating to strong activity comprising more than 70% of the cells) | 0 | 2 (score 2 relating to strong activity comprising more than 70% of the cells) | 2 (score 2 relating to strong activity comprising more than 70% of the cells) | 0 | 2 (score 2 relating to strong activity comprising more than 70% of the cells) | 2 (score 2 relating to strong activity comprising more than 70% of the cells) | 2 (score 2 relating to strong activity comprising more than 70% of the cells) | 2 (score 2 relating to strong activity comprising more than 70% of the cells) | 2 (score 2 relating to strong activity comprising more than 70% of the cells) | 1 (1 relating to weak activity comprising less than 70% of the cells) | 2 (score 2 relating to strong activity comprising more than 70% of the cells) | 2 (score 2 relating to strong activity comprising more than 70% of the cells) | 0 | 0 | 0 | 10 to 100 nM | 
Cc1ccc(OCn2c(-c3nonc3NCCC#N)nc3ccccc32)cc1C [Example 10, 4-[1-(3,4-Dimethylphenoxymethyl)-1H-benzimidazol-2-yl]-furazan-3-yl-N-(2-cyanoethyl)-amine] | 10 to 100 nM | 0 | 1 (1 relating to weak activity comprising less than 70% of the cells) | 2 (score 2 relating to strong activity comprising more than 70% of the cells) | 0 | 0 | 2 (score 2 relating to strong activity comprising more than 70% of the cells) | 0 | 1 (1 relating to weak activity comprising less than 70% of the cells) | 2 (score 2 relating to strong activity comprising more than 70% of the cells) | 0 | 2 (score 2 relating to strong activity comprising more than 70% of the cells) | 2 (score 2 relating to strong activity comprising more than 70% of the cells) | 0 | 0 | 1 (1 relating to weak activity comprising less than 70% of the cells) | 0 | 0 | 0 |  | IC50 ([2]; Homo sapiens): 100 to 1000 nM
Cc1ccc(C(=O)Cn2c(-c3nonc3NCCCO)nc3ccccc32)cc1C [Example 52] | 10 to 100 nM | 0 | 1 (1 relating to weak activity comprising less than 70% of the cells) | 2 (score 2 relating to strong activity comprising more than 70% of the cells) | 0 | 2 (score 2 relating to strong activity comprising more than 70% of the cells) | 2 (score 2 relating to strong activity comprising more than 70% of the cells) | 0 | 2 (score 2 relating to strong activity comprising more than 70% of the cells) | 2 (score 2 relating to strong activity comprising more than 70% of the cells) | 0 | 2 (score 2 relating to strong activity comprising more than 70% of the cells) | 2 (score 2 relating to strong activity comprising more than 70% of the cells) | 0 | 2 (score 2 relating to strong activity comprising more than 70% of the cells) | 2 (score 2 relating to strong activity comprising more than 70% of the cells) | 0 | 0 | 0 | 10 to 100 nM | 
COc1cc2nc(-c3nonc3N)n(CC(=O)c3ccc(-c4ccccc4)cc3)c2cc1OC [Example 117] |  | 0 | 0 | 0 | 0 | 0 | 0 | 0 | 0 | 0 | 0 | 0 | 0 | 0 | 0 | 0 | 0 | 0 | 0 | > 1000 nM | IC50 [4]: > 1000 nM; IC50 [5]: > 1000 nM; IC50 [6]: > 1000 nM

Source: patent USRE42890E1, “Furazanobenzimidazoles” (Basilea Pharmaceutica AG, priority 2003, dated 2011)
